From ChEMBL document CHEMBL1201862, “PubChem BioAssay data set” (2004)
Where “and” joins values, the source holds several entries; their conditions need not be identical. Identical values can stand only once.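 Cells were grown in 96-well plates and exposed to each compound for 48 hours at five concentrations; endpoints were interpolated linearly between bracketing concentrations, or set to the highest concentration if not reached. GI50: concentration for 50% inhibition of growth.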 Calls of active or inactive are those of the source. Cut-off read from the data, not from the text of the source: active = GI50 up to about 1.1 µM and inactive = higher.

Columns and labels:
Experiment in all cases: NCI anticancer screen, dose series, 48 h
[1] = tested on: UACC-257
[2] = tested on: XF498
[3] = tested on: COLO 205
[4] = tested on: OVCAR-5
[5] = tested on: SNB-19
[6] = tested on: HOP-62
[7] = tested on: OVCAR-8
[8] = tested on: CCRF-CEM
[9] = tested on: NCI-H23
[10] = tested on: SNB-75
[11] = tested on: Malme-3M
[12] = tested on: K562
[13] = tested on: HT-29
[14] = tested on: NCI-H460
[15] = tested on: HL-60
[16] = tested on: MOLT-4
[17] = tested on: NCI-H226
[18] = tested on: TK-10
[19] = tested on: SK-MEL-2
[20] = tested on: HOP-92
[21] = tested on: SR
[22] = tested on: M14
[23] = tested on: HOP-18
[24] = tested on: SN12C
[25] = tested on: SF-539
[26] = tested on: LOX IMVI
[27] = tested on: A549
[28] = tested on: DMS-273
[29] = tested on: KM12
[30] = tested on: OVCAR-3
[31] = tested on: EKVX
[32] = tested on: SK-OV-3
[33] = tested on: HCT-15
[34] = tested on: KM-20L2
[35] = tested on: SF-295
[36] = tested on: OVCAR-4
[37] = tested on: RXF 393
[38] = tested on: UO-31
[39] = tested on: DMS-114
[40] = tested on: DLD-1
[41] = tested on: CAKI-1
[42] = tested on: SNB-78
[43] = tested on: UACC-62
[44] = tested on: 786-0
[45] = tested on: SF-268
[46] = tested on: NCI-H522
[47] = tested on: SK-MEL-5
[48] = tested on: RPMI-8226
[49] = tested on: A498
[50] = tested on: U-251
[51] = tested on: HCT-116
[52] = tested on: LXFL 529
[53] = tested on: IGROV-1
[54] = tested on: M19-MEL
[55] = tested on: SW-620
[56] = tested on: ACHN
[57] = tested on: HCC 2998
[58] = tested on: SK-MEL-28
[59] = tested on: PC-3
[60] = tested on: BT-549
[61] = tested on: MDA-MB-231
[62] = tested on: T47D
[63] = tested on: MDA-MB-435
[64] = tested on: MDA-N
[65] = tested on: DU-145
[66] = tested on: Hs-578T

Measured: GI50

O=C1OC2C(O)COC2(O)C1(O)Cc1c[nH]c2ccccc12 (configuration not stated)
> 100 µM: [33]
inactive: [1] > 100 µM | [2] > 100 µM | [3] > 100 µM | [4] > 100 µM | [5] > 100 µM | [6] > 100 µM | [7] > 100 µM | [8] > 100 µM | [9] > 100 µM | [10] > 100 µM | [11] > 100 µM | [12] > 100 µM | [13] > 100 µM | [14] > 100 µM | [15] > 100 µM | [16] > 100 µM | [17] > 100 µM | [18] > 100 µM | [19] > 100 µM | [20] > 100 µM | [21] > 100 µM | [22] > 100 µM | [23] > 100 µM | [24] > 100 µM | [25] > 100 µM | [26] > 100 µM | [27] > 100 µM | [28] > 100 µM | [29] > 100 µM | [30] > 100 µM | [31] > 100 µM | [32] > 100 µM | [34] > 100 µM | [35] > 100 µM | [36] > 100 µM | [37] > 100 µM | [38] > 100 µM | [39] > 100 µM | [40] > 100 µM | [41] > 100 µM | [42] > 100 µM | [43] > 100 µM | [44] > 100 µM | [45] > 100 µM | [46] > 100 µM | [47] > 100 µM | [48] > 100 µM | [49] > 100 µM | [50] > 100 µM | [51] > 100 µM | [52] > 100 µM | [53] > 100 µM | [54] > 100 µM | [55] > 100 µM

Cc1ccc(-c2nnc(SCC(=O)O)[nH]2)cc1
inactive: [1] > 100 µM | [2] > 100 µM | [3] > 100 µM | [4] > 100 µM | [5] > 100 µM | [6] > 100 µM | [7] > 100 µM | [8] > 100 µM | [9] > 100 µM | [10] 78.5 µM | [11] > 100 µM | [12] > 100 µM | [13] > 100 µM | [14] > 100 µM | [15] > 100 µM | [16] > 100 µM | [17] > 100 µM | [18] > 100 µM | [19] > 100 µM | [20] > 100 µM | [21] > 100 µM | [22] > 100 µM | [23] > 100 µM | [24] > 100 µM | [25] > 100 µM | [27] > 100 µM | [28] > 100 µM | [29] > 100 µM | [30] > 100 µM | [31] > 100 µM | [32] > 100 µM | [34] > 100 µM | [35] > 100 µM | [36] > 100 µM | [38] > 100 µM | [39] > 100 µM | [56] > 100 µM | [40] > 100 µM | [41] > 100 µM | [42] > 100 µM | [43] > 100 µM | [44] > 100 µM | [45] > 100 µM | [46] > 100 µM | [47] > 100 µM | [48] > 100 µM | [49] > 100 µM | [57] > 100 µM | [58] > 100 µM | [50] > 100 µM | [51] > 100 µM | [52] > 100 µM | [53] > 100 µM | [54] > 100 µM | [55] > 100 µM
> 100 µM: [33]

Cc1cc(O)c2c(=O)c3c(O)cc(O)c4c5c(O)cc(O)c6c(=O)c7c(O)cc(C)c8c1c2c(c34)c(c78)c65 [HYPERICIN]
inactive: [2] 71.1 µM | [5] > 100 µM | [6] 28.3 µM | [59] > 100 µM | [7] 74.3 µM | [60] > 100 µM | [11] 61 µM | [12] 61.8 µM and 33.3 µM | [61] 10.1 µM | [18] > 100 µM | [21] 99.8 µM | [22] > 100 µM | [23] 63.1 µM | [24] 60.8 µM | [27] 52.6 µM | [28] 56.4 µM | [29] 54.5 µM | [30] > 100 µM and 67 µM | [31] > 100 µM and 62.5 µM | [62] > 100 µM | [34] 21.7 µM | [37] 26.4 µM | [56] > 100 µM | [40] 21.3 µM | [63] > 100 µM | [41] > 100 µM | [42] 42.5 µM | [44] > 100 µM | [45] 54 µM | [64] > 100 µM | [47] 59.8 µM | [65] > 100 µM | [58] 53.1 µM | [66] > 100 µM | [54] 44.2 µM | [55] 51.9 µM
